Results reported in PMC7761830, “Structure-Based Virtual Screening of Ultra-Large Library Yields Potent Antagonists for a Lipid GPCR” (Biomolecules, 2020).

Assays:
[1] = test system: CysLT1R; conditions: CysLT1R; ChEMBL value; ref 29 (ChEMBL); cited from earlier work
[2] = target: T1, wild-type CysLT1R (Homo sapiens, UniProt Q9Y271); assay: IP1 production assay, antagonist mode, co-stimulation with EC80 LTD4; type: cell-based; conditions: for inhibition at 30 µM: HEK293, compound 30 µM, LTD4 at EC80, HEK293, wild-type CysLT1R, read-out: inhibition of LTD4-induced IP1 production, single-concentration screen; for Emax: HEK293, read-out: CysLT1R (LTD4) % Max Inhibition ± SEM; for extent of inhibition of LTD4-mediated response at CysLT1R (in words): antagonist mode, 1.5 to 100 µM
T1 construct: expressed in transfected cells; host or cells: HEK293 (ATCC CRL-1573), transient transfection with Lipofectamine 3000
T1 sequence (Q9Y271 1-337): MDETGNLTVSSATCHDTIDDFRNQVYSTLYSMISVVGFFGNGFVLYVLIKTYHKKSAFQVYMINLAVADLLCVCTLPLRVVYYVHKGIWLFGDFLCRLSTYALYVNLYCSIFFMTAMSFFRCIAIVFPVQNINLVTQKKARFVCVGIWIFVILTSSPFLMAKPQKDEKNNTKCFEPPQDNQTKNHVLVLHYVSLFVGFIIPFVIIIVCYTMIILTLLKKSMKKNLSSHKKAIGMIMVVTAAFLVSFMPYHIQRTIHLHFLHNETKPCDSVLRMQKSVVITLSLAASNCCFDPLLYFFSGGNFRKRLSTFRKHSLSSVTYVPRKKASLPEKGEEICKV
Description: (§1) For this assay, we used the Cisbio IP-One kit as previously described. […] At 48 h post-transfection, the media was removed and the cells were washed with fresh Hank’s Balanced Salt Solution (HBSS). […] After compound stimulation, the cells were incubated for 1 h at 37 °C and stimulated with IP1-D2 and Ab-Crypt reagents in Lysis Buffer. The cells were then incubated at room temperature for an additional hour. […] Normalized data were plotted using either the three-parameter or four-parameter EC50/IC50 fits of GraphPad Prism 8 (San Diego). […] Data represent the means ± SEM of at least three independent experiments performed in quadruplicate.

[3] = target: T2, wild-type CysLT2R (Homo sapiens, UniProt Q9NS75); assay: as above; type: cell-based; conditions: for inhibition at 30 µM: HEK293, compound 30 µM, LTD4 at EC80, HEK293, wild-type CysLT2R, read-out: inhibition of LTD4-induced IP1 production, single-concentration screen; for Emax: HEK293, read-out: CysLT2R (LTD4) % Max Inhibition ± SEM
T2 construct: expressed in transfected cells; host or cells: HEK293 (ATCC CRL-1573), transient transfection with Lipofectamine 3000
T2 sequence (Q9NS75 1-346): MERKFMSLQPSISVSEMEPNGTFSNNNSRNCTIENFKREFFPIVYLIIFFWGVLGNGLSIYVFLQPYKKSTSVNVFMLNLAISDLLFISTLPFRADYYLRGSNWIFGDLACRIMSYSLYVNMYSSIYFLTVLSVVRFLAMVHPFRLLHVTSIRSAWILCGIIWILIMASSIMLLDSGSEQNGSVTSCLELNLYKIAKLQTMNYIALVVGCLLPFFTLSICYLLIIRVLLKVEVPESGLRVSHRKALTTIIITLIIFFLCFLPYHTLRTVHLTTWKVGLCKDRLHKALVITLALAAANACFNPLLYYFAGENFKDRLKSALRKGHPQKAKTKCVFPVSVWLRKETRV
Description: as §1

Row | SMILES | remaining activity at 30 µM [2] [%] | remaining activity at 30 µM [3] [%] | further results
1 | CCCCCC=CCC=CC=CC=C[C@@H](SC[C@H](N)C(=O)NCC(=O)O)[C@@H](O)CCCC(=O)O [CHEMBL288943, CCCCCC=CCC=CC=CC=C[C@H]([C@H](CCCC(O)=O)O)SC[C@@H](C(NCC(O)=O)=O)N] | – | – | pAct [1]: 9.5
2 | COc1ccc(NS(=O)(=O)C(F)(F)F)cc1C[C@H]1[C@@H](CO)c2cc(OCc3ccc4ccc(C)cc4n3)ccc2OC1(C)C [CHEMBL1214531, Cc1ccc2ccc(COc3ccc4c(c3)[C@H](CO)[C@H](Cc3cc(ccc3OC)NS(C(F)(F)F)(=O)=O)C(C)(C)O4)nc2c1] | – | – | pAct [1]: 8.4
3 | NC(=O)c1ccc(CNC(=O)c2ccc(NC(=O)c3ccc(Cl)c(Cl)c3)cc2O)o1 [BRI-12418] | 65.4 | 67.9 | –
4 | O=C(O)CC(NC(=O)c1ccc(Cl)c(N2CCNC2=O)c1)c1ccccc1 (stereo not shown) [BRI-12311] | 77.5 | 91 | –
5 | O=C(COC1CCCc2ccccc21)Nc1cccc(NC(=O)NCc2ccncc2)c1 (stereo not shown) [BRI-12405] | 70 | 40.6 | inhibition at 30 µM [3]: ≥ 50%; Emax [3]: 23 ± 6%
6 | NS(=O)(=O)c1cncc(-c2noc(CN(Cc3ccccc3)c3ccccc3)n2)c1 [BRI-12410] | 45.2 | 46.7 | Ki [2]: 590 ± 120 nM; inhibition at 30 µM [2]: ≥ 50%; Emax [2]: 64 ± 7%; extent of inhibition of LTD4-mediated response at CysLT1R (in words) [2]: partial antagonism; inhibition at 30 µM [3]: ≥ 50%; Emax [3]: 18 ± 9%
7 | NC(=O)c1ccc(NC(=O)CCCCC2SCC3NC(=O)NC32)cc1 (stereo not shown) [BRI-12301] | 91.5 | 88.1 | –
8 | CC(C)c1cc(C(=O)Nc2ccc(C(=O)NCC(=O)O)cc2)nn1C [BRI-12406] | 79.6 | 68.4 | –
9 | O=C(O)c1cccc(NC(=O)c2ccc(N3CCNC3=O)cc2)c1 [BRI-12457] | 83.8 | 67.4 | –
10 | Cc1nonc1CC(=O)NC1(CNC(=O)c2cc3occc3s2)CCC1 [BRI-12463] | 81.2 | 57.8 | –
11 | Cc1ccc2c(CC(=O)N3CCN(C(=O)c4ccc(C(N)=O)o4)CC3)c[nH]c2c1 [BRI-12462] | 77.1 | 78.1 | –
12 | O=C(O)CCC1CCCCN1C(=O)Cc1c[nH]c2cc(F)ccc12 (stereo not shown) [BRI-12310] | 77.3 | 91.6 | –
13 | Cn1nc(C2CC2)nc1CC(=O)Nc1ccc(N2CCNC2=O)cc1 [BRI-12402] | 66.8 | 40.2 | inhibition at 30 µM [3]: ≥ 50%; Emax [3]: 8 ± 4%
14 | Cc1ccc2ncc(C(=O)NC3CN(C(=O)c4cc(C(N)=O)cs4)C3)n2c1 [BRI-12466] | 67.7 | 39 | inhibition at 30 µM [3]: ≥ 50%; Emax [3]: 12 ± 6%
15 | O=C(O)CCN(CC1CCCO1)C(=O)c1cc(-c2ccccc2Cl)[nH]n1 (stereo not shown) [BRI-12320] | 81.4 | 90.5 | –
16 | CC(=O)Nc1ccccc1OS(=O)(=O)c1cccc2cc(C)cnc12 [BRI-12318] | 74.1 | 88.2 | –
17 | Cc1cccc(COc2ccc(CNS(=O)(=O)N(C)CCC(=O)O)cc2)c1 [BRI-12411] | 55.9 | 57.3 | Ki [2]: 720 ± 160 nM; inhibition at 30 µM [2]: ≥ 50%; Emax [2]: 66 ± 18%; extent of inhibition of LTD4-mediated response at CysLT1R (in words) [2]: partial antagonism
18 | O=C(O)CNC(=O)c1ccc(NC(=O)c2cc3ccccn3c2)cc1 [BRI-12317] | 86.4 | 89.2 | –
19 | Cc1ccccc1Nc1nc2sc(C(=O)NCCc3nnc4n3CCNC4=O)cc2s1 [BRI-12435] | 54.5 | 77.1 | inhibition at 30 µM [2]: ≥ 50%; Emax [2]: 46 ± 20%
20 | NC(=O)CNC(=O)c1ccc(CNC(=O)c2cc3ccc(F)cc3[nH]c2=O)cc1 [BRI-12453] | 88.3 | 49.5 | inhibition at 30 µM [3]: ≥ 50%; Emax [3]: 3 ± 7%
21 | O=C1COc2ccc(C(=O)Cn3cnc4sc5c(c4c3=O)CCC5)cc2N1 [BRI-12335] | 73.8 | 74.8 | –
22 | O=C(O)c1csc(S(=O)(=O)Nc2cccc(NC(=O)c3ccco3)c2)c1 [BRI-12344] | 72.5 | 96.8 | –
23 | O=C(O)C(Cc1c[nH]c2ncccc12)NS(=O)(=O)c1csc(-c2ccc(F)cc2)n1 (stereo not shown) [BRI-12439] | 88.3 | 72.4 | –
24 | C=C1c2ccccc2C(=O)N1CCC(=O)Nc1cc(C(N)=O)cc(C(N)=O)c1 [BRI-12353] | 83.4 | 96.8 | –
25 | NC(=O)NC(=O)COC(=O)c1ccccc1Nc1cccc(C(F)(F)F)c1 [BRI-12349] | 80 | 70.5 | –

Second part, led by results:

Row | remaining activity at 30 µM [2] [%] | remaining activity at 30 µM [3] [%] | SMILES | further results
26 | 90.1 | 66.4 | CC1(C(=O)Nc2ccc(C(=O)NCCC(=O)O)cc2)CCOCC1 [BRI-12476] | –
27 | 74.3 | 90.5 | Cc1ccc(-c2nnc(SCC(=O)NC(N)=O)nc2-c2ccc(C)cc2)cc1 [BRI-12360] | –
28 | 87.8 | 87.4 | O=C(O)[C@@H]1CC[C@H](C(=O)Nc2cccc(-c3nc4ccccc4[nH]3)c2)C1 [BRI-12309] | –
29 | 91.7 | 64.2 | CC(C)NC(=O)Nc1ccc(C(=O)Nc2ccc(OCC(=O)O)c(Cl)c2)cc1 [BRI-12420] | –
30 | 89.5 | 72 | O=C(NC(C(=O)O)c1ccccc1F)c1ccc(Cl)c(NC(=O)c2cccs2)c1 (stereo not shown) [BRI-12403] | –
31 | 77.6 | 82.6 | CC(Sc1ccccc1C(=O)O)C(=O)N1CC(=O)Nc2ccccc21 (stereo not shown) [BRI-12351] | –
32 | 57.6 | 41.1 | CN(CC(=O)O)C(=O)c1ccc(-c2ccc(NC(=O)C(C)(C)C)nc2)o1 [BRI-12450] | inhibition at 30 µM [2]: ≥ 50%; Emax [2]: 44 ± 25%; inhibition at 30 µM [3]: ≥ 50%; Emax [3]: 24 ± 8%
33 | 80.7 | 52.8 | CCOc1ccc(NC(=O)c2cccn3nnnc23)c(C(N)=O)c1 [BRI-12469] | –
34 | 89.5 | 107 | COc1ccc(C2=NN(C(=O)CCC(=O)O)C(c3cccs3)C2)cc1 (stereo not shown) [BRI-12348] | –
35 | 86.5 | 66.6 | O=C(O)CNC(=O)c1ccc(NC(=O)COCc2ccccc2)cc1 [BRI-12473] | –
36 | 81.8 | 84.9 | O=C(Cc1cccc(OCc2cccnc2)c1)Nc1cccc(-n2ccc(C(=O)O)n2)c1 [BRI-12414] | –
37 | 85.7 | 48.1 | O=C(Nc1ccccc1C(=O)N1CCn2ncnc2C1)c1ccc(Cl)cc1 [BRI-12419] | –
38 | 82.9 | 65.9 | O=C(NCCc1c[nH]c2cc(Cl)ccc12)c1ccc(NC2=NS(=O)(=O)c3ccccc32)cc1 [BRI-12478] | –
39 | 77.3 | 92.1 | CC1CC1C(=O)NCCC(=O)Nc1cccc(Cl)c1-n1cncn1 (stereo not shown) [BRI-12336] | –
40 | 90.3 | 59.5 | Cc1ccc(C(=O)Nc2ccc(C(=O)NCC(=O)O)cc2)c(O)c1 [BRI-12428] | –
41 | 89.7 | 68.2 | CC(O)CN(C(=O)Nc1ccc2c(c1)CCCC2=O)C1CC1 (stereo not shown) [BRI-12423] | –
42 | 77.5 | 70.5 | Cc1cccc(-n2nnc(C(=O)Nc3ccc4c(c3)NC(=O)CO4)c2C)c1 [BRI-12333] | –
43 | 86.6 | 67.7 | CC(C)(C)n1nnc(COC(=O)C2OCCc3ccccc32)n1 (stereo not shown) [BRI-12445] | –
44 | 75.3 | 101 | O=C(CC1SC(c2cc3ccccc3oc2=O)=NC1=O)Nc1ccc(F)cc1 (stereo not shown) [BRI-12345] | –
45 | 84.5 | 82.3 | COc1ccccc1OCc1ccc(C(=O)N[C@@H](CC(=O)O)c2ccc(Cl)cc2)o1 [BRI-12443] | –
